Measured values reported in the supplement of paper PMC11061612.

Columns and labels:
[1] = system: NCI-H2342 (Lung Adenocarcinoma); assay: combination Emax (second highest fraction inhibited in the dose matrix, 72 h); higher = more inhibition; extreme values may be limits of the assay
Summary of the method: (§1)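 Bliss excess equals the observed combination effect minus the expected value EA + EB − EA·EB, where EA and EB are the effects of each agent alone. Combination Emax is the second-highest inhibition within the matrix. Inhibition was scaled from CellTiter-Glo 2.0 luminescence, with 0 set by vehicle wells and 1 by blank wells, after 72 hours of two-drug dosing of cells plated in 1536-well plates.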

[2] = system: PANC-03-27 (Pancreatic Carcinoma); assay: as above
Summary of the method: as §1

[3] = system: CAL-62 (Thyroid Gland Carcinoma); assay: as above
Summary of the method: as §1

[4] = system: MKN45 (Gastric Carcinoma); assay: as above
Summary of the method: as §1

[5] = system: VAL (B-Cell Non-Hodgkin's Lymphoma); assay: as above
Summary of the method: as §1

[6] = system: A2058 (Melanoma); assay: as above
Summary of the method: as §1

[7] = system: MFE-280 (Endometrial Carcinoma); assay: as above
Summary of the method: as §1

[8] = system: NCI-H446 (Small Cell Lung Carcinoma); assay: as above
Summary of the method: as §1

[9] = system: RCM-1 (Colorectal Carcinoma); assay: as above
Summary of the method: as §1

[10] = system: PC-3_[JPC-3] (Lung Adenocarcinoma); assay: as above
Summary of the method: as §1

[11] = system: OVMIU (Ovarian Carcinoma); assay: as above
Summary of the method: as §1

[12] = system: COLO-680N (Esophageal Squamous Cell Carcinoma); assay: as above
Summary of the method: as §1

[13] = system: RERF-GC-1B (Gastric Carcinoma); assay: as above
Summary of the method: as §1

[14] = system: SF539 (Glioblastoma); assay: Bliss excess, mean over the matrix (fraction); higher = more synergy
Summary of the method: as §1

[15] = system: RKN (Other Solid Carcinomas); assay: as above
Summary of the method: as §1

[16] = system: KE-37 (T-Lymphoblastic Leukemia); assay: combination Emax (second highest fraction inhibited in the dose matrix, 72 h); higher = more inhibition; extreme values may be limits of the assay
Summary of the method: as §1

[17] = system: SF268 (Low Grade Glioma); assay: as above
Summary of the method: as §1

[18] = system: WM793B (Melanoma); assay: as above
Summary of the method: as §1

[19] = system: GB-1 (Glioblastoma); assay: Bliss excess, mean over the matrix (fraction); higher = more synergy
Summary of the method: as §1

[20] = system: CAL-120 (Breast Carcinoma); assay: combination Emax (second highest fraction inhibited in the dose matrix, 72 h); higher = more inhibition; extreme values may be limits of the assay
Summary of the method: as §1

| SMILES | combination Emax [1] | combination Emax [2] | combination Emax [3] | combination Emax [4] | combination Emax [5] | combination Emax [6] | combination Emax [7] | combination Emax [8] | combination Emax [9] | combination Emax [10] | combination Emax [11] | combination Emax [12] | combination Emax [13] | Bliss excess [14] | Bliss excess [15] | combination Emax [16] | combination Emax [17] | combination Emax [18] | Bliss excess [19] | combination Emax [20] |
| --- | --- | --- | --- | --- | --- | --- | --- | --- | --- | --- | --- | --- | --- | --- | --- | --- | --- | --- | --- | --- |
| CS(=O)(=O)CCNCc1ccc(-c2ccc3ncnc(Nc4ccc(OCc5cccc(F)c5)c(Cl)c4)c3c2)o1 [Lapatinib] + NC1(c2ccc(-c3nc4ccn5c(=O)[nH]nc5c4cc3-c3ccccc3)cc2)CCC1 [MK-2206] (first compound max 10 µM, 7x7, partner max 10 µM) | 0.196 | 0.76 | 0.721 | 0.617 | 0.898 | 0.982 | 0.911 | 0.962 | 0.514 | 0.927 | 0.891 | 0.467 | 0.943 | -0.0077 | -0.0169 | – | – | – | – | – |
| CN(CCO)CC[C@H](CSc1ccccc1)Nc1ccc(S(=O)(=O)NC(=O)c2ccc(N3CCC([C@@H](O)c4ccccc4-c4ccc(Cl)cc4)CC3)cc2)cc1S(=O)(=O)C(F)(F)F [AZD4320] + C1CN(CCC1(C(=O)N[C@@H](CCO)C2=CC=C(C=C2)Cl)N)C3=NC=NC4=C3C=CN4 [Capivasertib] (first compound max 1 µM, 7x7, partner max 3 µM) | 0.3 | 0.25 | 0.152 | 0.456 | 1 | 0.191 | 0.88 | 0.78 | 0.343 | 0.152 | 0.876 | 0.0496 | 0.496 | -0.0352 | -0.0321 | 1 | 0.211 | 0.281 | -0.0274 | – |
| CN(CCO)CC[C@H](CSc1ccccc1)Nc1ccc(S(=O)(=O)NC(=O)c2ccc(N3CCC([C@@H](O)c4ccccc4-c4ccc(Cl)cc4)CC3)cc2)cc1S(=O)(=O)C(F)(F)F [AZD4320] + Cn1cnc2c(F)c(Nc3ccc(Br)cc3Cl)c(C(=O)NOCCO)cc21 [Selumetinib] (first compound max 1 µM, 7x7, partner max 3 µM) | 0.423 | 0.793 | – | 0.511 | 1 | 0.76 | 0.705 | 0.758 | 0.785 | 0.571 | 0.739 | 0.246 | 0.716 | 0.0176 | 0.0307 | 1 | 0.69 | 0.578 | 0.0313 | 0.8 |
| CC(=O)c1c(C)c2cnc(Nc3ccc(N4CCNCC4)cn3)nc2n(C2CCCC2)c1=O [Palbociclib] + CN(CC[C@H](CSC1=CC=CC=C1)NC2=C(C=C(C=C2)S(=O)(=O)NC(=O)C3=CC=C(C=C3)N4CCC(CC4)[C@H](C5=CC=CC=C5C6=CC=C(C=C6)Cl)O)S(=O)(=O)C(F)(F)F)CCO [AZD4320] (first compound max 10 µM, 7x7, partner max 1 µM) | – | – | – | – | – | 0.323 | – | 0.887 | – | – | – | – | 0.35 | – | – | 1 | 0.35 | 0.474 | -0.111 | 0.815 |
| CCc1c2c(nc3ccc(O)cc13)-c1cc3c(c(=O)n1C2)COC(=O)[C@]3(O)CC [SN-38] + O=C(c1cc(Cc2n[nH]c(=O)c3ccccc23)ccc1F)N1CCN(C(=O)C2CC2)CC1 [Olaparib] (first compound max 0.3 µM, 7x7, partner max 10 µM) | 0.236 | 0.839 | 0.911 | 0.847 | 0.994 | 0.22 | 0.785 | 0.905 | 0.809 | 0.825 | 0.479 | 0.386 | – | 0.0549 | 0.0145 | 1 | – | – | 0.0539 | 0.7 |
| C=CCn1c(=O)c2cnc(Nc3ccc(N4CCN(C)CC4)cc3)nc2n1-c1cccc(C(C)(C)O)n1 [AZD1775] + C[C@@H]1COCCN1C2=NC(=NC(=C2)C3(CC3)[S@](=N)(=O)C)C4=C5C=CNC5=NC=C4 [AZD6738] (first compound max 1 µM, partner max 10 µM) | 0.426 | 0.939 | 0.928 | 0.787 | 0.881 | 0.413 | 0.627 | 0.951 | 0.852 | 0.537 | 0.731 | 0.529 | 0.851 | 0.0027 | -0.0029 | 1 | 0.526 | 0.875 | – | 0.583 |
| C[C@@H](c1ccc2nccn2c1)n1nnc2ncc(-c3cnn(C)c3)nc21 [Savolitinib] + CN(CC[C@H](CSC1=CC=CC=C1)NC2=C(C=C(C=C2)S(=O)(=O)NC(=O)C3=CC=C(C=C3)N4CCC(CC4)[C@H](C5=CC=CC=C5C6=CC=C(C=C6)Cl)O)S(=O)(=O)C(F)(F)F)CCO [AZD4320] (first compound max 1 µM, 7x7, partner max 1 µM) | – | – | – | – | – | 0.192 | – | 0.694 | – | – | – | – | 0.367 | – | – | 1 | 0.172 | 0.137 | -0.0653 | 0.65 |
